According to patent US20260209234A1, “SUBSTITUTED DIHYDROPYRROLO[3,4-D]PYRIMIDINE COMPOUNDS AND THEIR USE IN TREATING MEDICAL CONDITIONS” (Karuna Therapeutics, Inc., priority 2022, published 2026):

Legend:
hM4 receptors = target: T1, hM4 receptors (Homo sapiens, UniProt P08173); assay: Human M4 PAM pERK assay; format: cell-based; details: CHO cells expressing hM4; EC20 of acetylcholine (10 nM final); TR-FRET
T1 construct: expressed in transfected cells; host or cells: CHO cells
T1 sequence (P08173 1-479): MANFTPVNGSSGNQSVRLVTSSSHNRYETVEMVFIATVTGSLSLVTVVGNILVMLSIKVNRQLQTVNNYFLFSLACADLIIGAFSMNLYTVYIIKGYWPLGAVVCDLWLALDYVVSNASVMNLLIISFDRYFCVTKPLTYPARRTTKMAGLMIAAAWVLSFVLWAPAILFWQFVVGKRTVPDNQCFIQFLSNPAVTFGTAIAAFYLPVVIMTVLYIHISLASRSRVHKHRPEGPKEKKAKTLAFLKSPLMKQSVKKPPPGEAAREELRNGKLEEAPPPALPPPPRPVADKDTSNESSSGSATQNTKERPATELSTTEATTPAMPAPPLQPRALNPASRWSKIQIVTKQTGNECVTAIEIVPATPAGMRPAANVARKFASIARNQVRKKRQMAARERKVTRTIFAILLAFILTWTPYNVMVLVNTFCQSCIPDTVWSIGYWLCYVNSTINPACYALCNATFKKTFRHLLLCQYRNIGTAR

human M4 receptor = target: T2, human M4 receptor (Homo sapiens, UniProt P08173); assay: M4 GTPγS PAM assay; format: biochemical; details: membranes of CHO-K1 cells stably expressing human M4; EC20 acetylcholine 40 nM; 35S-GTP
T2 construct: expressed in transfected cells
T2 sequence (P08173 1-479): T1 sequence (P08173 1-479)
How it was run: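 CHO-K1 membranes stably expressing human M4, preincubated with compound and 0.1 μM GDP (final) in 20 mM HEPES, 10 mM MgCl2, 100 mM NaCl, pH 7.4, then EC20 acetylcholine (40 nM final). 35S-GTPγS binding 1 h at room temperature, filtration and scintillation counting.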

EC50 (hM4 receptors) | EC50 (human M4 receptor) | Compound
≤ 100 nM | ≤ 100 nM | COc1nc(C#N)nc2c1C(C)N(C(=O)CC1CN(c3ccnc(C(F)(F)F)c3)C1)C2 (single isomer, unassigned) [Compound I-6, 4-Methoxy-5-methyl-6-(2-(1-(2-(trifluoromethyl)pyridin-4-yl)azetidin-3-yl)acetyl)-6,7-dihydro-5H-pyrrolo[3,4-d]pyrimidine-2-carbonitrile]
100 to 500 nM | ≤ 100 nM | COc1nc(C)nc2c1C(C)N(C(=O)CC1CN(c3ccnc(C(F)(F)F)c3)C1)C2 (single isomer, unassigned) [Compound I-52, 1-(4-Methoxy-2,5-dimethyl-5,7-dihydro-6H-pyrrolo[3,4-d]pyrimidin-6-yl)-2-(1-(2-(trifluoromethyl)pyridin-4-yl)azetidin-3-yl)ethan-1-one]
